Organism: Rattus norvegicus
Assay: Open TG-GATES - Regimen: Daily Repeat
Assay type: toxicity, organism-based, Sprague-Dawley
Set-up: regimen Daily Repeat, gender Male, age 6 weeks
Conditions: in vivo, po, 1000 mg/kg, route gavage, dose level High; for APTT / Bas / Eos / Fbg / Hb / Ht / Lym / MCH / MCHC / MCV / Mono / Neu / PT / Plat / RBC / Ret / WBC: tissue Blood; for KIDNEY_L / KIDNEY_R / KIDNEY_TOTAL: tissue Kidney; for LIVER: tissue Liver; for A/G / ALP / ALT / AST / BUN / CRE / Ca / Cl / DBIL / GLC / IP / K / LDH / Na / PL / RALB / TBIL / TC / TG / TP / gamma-GTP: tissue Plasma

O=C(N[C@H](CO)[C@H](O)c1ccc([N+](=O)[O-])cc1)C(Cl)Cl [CHLORAMPHENICOL]
TERMINAL_BW (72 h, time 3 day): 243.9 g
APTT (72 h, time 3 day): 17 s
Bas (72 h, time 3 day): 0%
Eos (72 h, time 3 day): 1.4%
Fbg (72 h, time 3 day): 313.4 mg/dL
Hb (72 h, time 3 day): 13.3 g/dL
Ht (72 h, time 3 day): 40.7%
Lym (72 h, time 3 day): 87.8%
MCH (72 h, time 3 day): 21.1 pg
MCHC (72 h, time 3 day): 32.7%
MCV (72 h, time 3 day): 64.6 fL
Mono (72 h, time 3 day): 3.2%
Neu (72 h, time 3 day): 7%
PT (72 h, time 3 day): 14.6 s
Plat (72 h, time 3 day): 109.7 x10_4/uL
RBC (72 h, time 3 day): 630.6 x10_4/ul
Ret (72 h, time 3 day): 2.3%
WBC (72 h, time 3 day): 63.9 x10_2/uL
KIDNEY_L (72 h, time 3 day): 1.1 g
KIDNEY_R (72 h, time 3 day): 1.1 g
KIDNEY_TOTAL (72 h, time 3 day): 2.2 g
LIVER (72 h, time 3 day): 13.2 g
A/G (72 h, time 3 day): 0.9
ALP (72 h, time 3 day): 1258.6 IU/L
ALT (72 h, time 3 day): 41 IU/L
AST (72 h, time 3 day): 75 IU/L
BUN (72 h, time 3 day): 16.6 mg/dL
CRE (72 h, time 3 day): 0.2 mg/dL
Ca (72 h, time 3 day): 10.5 mg/dL
Cl (72 h, time 3 day): 106.8 meq/L
DBIL (72 h, time 3 day): 0.012 mg/dL
GLC (72 h, time 3 day): 168.4 mg/dL
IP (72 h, time 3 day): 6.2 mg/dL
K (72 h, time 3 day): 4.3 meq/L
LDH (72 h, time 3 day): 85.6 IU/L
Na (72 h, time 3 day): 141.6 meq/L
PL (72 h, time 3 day): 138.6 mg/dL
RALB (72 h, time 3 day): 2.4 g/dL
TBIL (72 h, time 3 day): 0.05 mg/dL
TC (72 h, time 3 day): 72.6 mg/dL
TG (72 h, time 3 day): 82.6 mg/dL
TP (72 h, time 3 day): 5.2 g/dL
gamma-GTP (72 h, time 3 day): 1 IU/L
TERMINAL_BW ([…], time 7 day): 275.6 g
TERMINAL_BW ([…], time 14 day): 327.3 g
TERMINAL_BW ([…], time 28 day): 381.6 g
APTT ([…], time 7 day): 16.3 s
Bas ([…], time 7 day): 0%
Eos ([…], time 7 day): 1%
Fbg ([…], time 7 day): 339.2 mg/dL
Hb ([…], time 7 day): 13 g/dL
Ht ([…], time 7 day): 40%
Lym ([…], time 7 day): 84.4%
MCH ([…], time 7 day): 20.6 pg
MCHC ([…], time 7 day): 32.5%
MCV ([…], time 7 day): 63.3 fL
Mono ([…], time 7 day): 2.4%
Neu ([…], time 7 day): 11.4%
PT ([…], time 7 day): 14.8 s
Plat ([…], time 7 day): 126.1 x10_4/uL
RBC ([…], time 7 day): 631.6 x10_4/ul
Ret ([…], time 7 day): 4.9%
WBC ([…], time 7 day): 79.2 x10_2/uL
APTT ([…], time 14 day): 15.6 s
Bas ([…], time 14 day): 0%
Eos ([…], time 14 day): 1%
Fbg ([…], time 14 day): 325.6 mg/dL
Hb ([…], time 14 day): 13.9 g/dL
Ht ([…], time 14 day): 42.9%
Lym ([…], time 14 day): 87.2%
MCH ([…], time 14 day): 20.6 pg
MCHC ([…], time 14 day): 32.3%
MCV ([…], time 14 day): 63.6 fL
Mono ([…], time 14 day): 2.8%
Neu ([…], time 14 day): 8.4%
PT ([…], time 14 day): 14.9 s
Plat ([…], time 14 day): 116.9 x10_4/uL
RBC ([…], time 14 day): 675.6 x10_4/ul
Ret ([…], time 14 day): 4.4%
WBC ([…], time 14 day): 86.3 x10_2/uL
APTT ([…], time 28 day): 16.3 s
Bas ([…], time 28 day): 0%
Eos ([…], time 28 day): 1.2%
Fbg ([…], time 28 day): 303 mg/dL
Hb ([…], time 28 day): 14.6 g/dL
Ht ([…], time 28 day): 42.8%
Lym ([…], time 28 day): 87.4%
MCH ([…], time 28 day): 19.6 pg
MCHC ([…], time 28 day): 34.1%
MCV ([…], time 28 day): 57.3 fL
Mono ([…], time 28 day): 1.6%
Neu ([…], time 28 day): 9.2%
PT ([…], time 28 day): 15.5 s
Plat ([…], time 28 day): 106.7 x10_4/uL
RBC ([…], time 28 day): 746.4 x10_4/ul
Ret ([…], time 28 day): 1.7%
WBC ([…], time 28 day): 78.6 x10_2/uL
KIDNEY_L ([…], time 7 day): 1.2 g
KIDNEY_R ([…], time 7 day): 1.2 g
KIDNEY_TOTAL ([…], time 7 day): 2.4 g
KIDNEY_L ([…], time 14 day): 1.4 g
KIDNEY_R ([…], time 14 day): 1.3 g
KIDNEY_TOTAL ([…], time 14 day): 2.7 g
KIDNEY_L ([…], time 28 day): 1.6 g
KIDNEY_R ([…], time 28 day): 1.6 g
KIDNEY_TOTAL ([…], time 28 day): 3.2 g
LIVER ([…], time 7 day): 15.2 g
LIVER ([…], time 14 day): 18.1 g
LIVER ([…], time 28 day): 20.9 g
A/G ([…], time 7 day): 0.9
ALP ([…], time 7 day): 1416.6 IU/L
ALT ([…], time 7 day): 50.6 IU/L
AST ([…], time 7 day): 77.4 IU/L
BUN ([…], time 7 day): 15.8 mg/dL
CRE ([…], time 7 day): 0.2 mg/dL
Ca ([…], time 7 day): 11.2 mg/dL
Cl ([…], time 7 day): 105.4 meq/L
DBIL ([…], time 7 day): 0.012 mg/dL
GLC ([…], time 7 day): 179.4 mg/dL
IP ([…], time 7 day): 8.8 mg/dL
K ([…], time 7 day): 4.1 meq/L
LDH ([…], time 7 day): 92.8 IU/L
Na ([…], time 7 day): 143.6 meq/L
PL ([…], time 7 day): 136.2 mg/dL
RALB ([…], time 7 day): 2.7 g/dL
TBIL ([…], time 7 day): 0.052 mg/dL
TC ([…], time 7 day): 67.8 mg/dL
TG ([…], time 7 day): 71.8 mg/dL
TP ([…], time 7 day): 5.8 g/dL
gamma-GTP ([…], time 7 day): 1 IU/L
A/G ([…], time 14 day): 0.9
ALP ([…], time 14 day): 1573.2 IU/L
ALT ([…], time 14 day): 50.6 IU/L
AST ([…], time 14 day): 72.6 IU/L
BUN ([…], time 14 day): 17.8 mg/dL
CRE ([…], time 14 day): 0.2 mg/dL
Ca ([…], time 14 day): 11 mg/dL
Cl ([…], time 14 day): 105.6 meq/L
DBIL ([…], time 14 day): 0.016 mg/dL
GLC ([…], time 14 day): 179.2 mg/dL
IP ([…], time 14 day): 7.2 mg/dL
K ([…], time 14 day): 4.1 meq/L
LDH ([…], time 14 day): 53.6 IU/L
Na ([…], time 14 day): 144 meq/L
PL ([…], time 14 day): 149.8 mg/dL
RALB ([…], time 14 day): 2.7 g/dL
TBIL ([…], time 14 day): 0.046 mg/dL
TC ([…], time 14 day): 71.4 mg/dL
TG ([…], time 14 day): 79.2 mg/dL
TP ([…], time 14 day): 5.7 g/dL
gamma-GTP ([…], time 14 day): 1 IU/L
A/G ([…], time 28 day): 0.9
ALP ([…], time 28 day): 936.8 IU/L
ALT ([…], time 28 day): 43.6 IU/L
AST ([…], time 28 day): 72.8 IU/L
BUN ([…], time 28 day): 17 mg/dL
CRE ([…], time 28 day): 0.2 mg/dL
Ca ([…], time 28 day): 10.4 mg/dL
Cl ([…], time 28 day): 105.8 meq/L
DBIL ([…], time 28 day): 0.016 mg/dL
GLC ([…], time 28 day): 164.4 mg/dL
IP ([…], time 28 day): 6.3 mg/dL
K ([…], time 28 day): 3.6 meq/L
LDH ([…], time 28 day): 53.4 IU/L
Na ([…], time 28 day): 145.2 meq/L
PL ([…], time 28 day): 131.6 mg/dL
RALB ([…], time 28 day): 2.6 g/dL
TBIL ([…], time 28 day): 0.06 mg/dL
TC ([…], time 28 day): 57.8 mg/dL
TG ([…], time 28 day): 74.8 mg/dL
TP ([…], time 28 day): 5.6 g/dL
gamma-GTP ([…], time 28 day): 1 IU/L
